Experimental data taken from patent US20230167088A1, “1-PYRAZINYLPYRAZOLYL-3-OXYALKYL ACIDS AND THEIR DERIVATIVES, AND THEIR USE FOR CONTROL OF UNDESIRED PLANT GROWTH” (BAYER AKTIENGESELLSCHAFT, priority 2020, published 2023).

Experiments:
[1] = system: ECHCG; test: Herbicidal pre-emergence action 2a (greenhouse pots, visual scoring); format: in vivo, Echinochloa crus-galli; conditions: dosage 320 g/ha, visual scoring after about 3 weeks
Text: (§1) [table] a) Seeds of monocotyledonous and dicotyledonous weed plants and crop plants are placed in plastic or organic plant pots and covered with soil. The compounds of the invention, formulated in the form of wettable powders (WP) or as emulsion concentrates (EC), are then applied onto the surface of the covering soil as aqueous suspension or emulsion with addition of 0.5% additive at a water application rate of 600 1/ha (converted). After the treatment, the pots are placed in a greenhouse and kept under good growth conditions for the trial plants. After about 3 weeks, the effect of the preparations is scored visually in comparison with untreated controls as percentages. For example, 100% activity=the plants have died, 0% activity=like control plants. Tables B1 to B15 below show the effects of selected compounds of the general formula (I) according to Tables 1 and 2 on various harmful plants and an application rate corresponding to 320 g/ha and/or 80 g/ha, which were obtained by the experimental procedure mentioned above.

[2] = system: VERPE; test: Herbicidal post-emergence action 1a (greenhouse pots, visual rating); format: in vivo, Veronica persica; conditions: visual rating about 3 weeks after treatment
Experimental: (§2) [table] a) Seeds of monocotyledonous and dicotyledonous weeds and crop plants are placed in sandy loam in plastic or organic plant pots, covered with soil and cultivated in a greenhouse under controlled growth conditions. 2 to 3 weeks after sowing, the test plants are treated at the one-leaf stage. The compounds of the invention, formulated in the form of wettable powders (WP) or as emulsion concentrates (EC), are then sprayed onto the green parts of the plants as aqueous suspension or emulsion with addition of 0.5% additive at a water application rate of 600 1/ha (converted). After the test plants have been kept in the greenhouse under optimum growth conditions for about 3 weeks, the activity of the preparations is rated visually in comparison to untreated controls. For example, 100% activity=the plants have died, 0% activity=like control plants. Tables A1 to A15 below show the effects of selected compounds of the general formula (I) according to Tables 1 and 2 on various harmful plants and an application rate corresponding to 320 g/ha and/or 80 g/ha, which were obtained by the experimental procedure mentioned above.

[3] = system: VERPE; test: Herbicidal pre-emergence action 2a (greenhouse pots, visual scoring); format: in vivo, Veronica persica; conditions: dosage 320 g/ha, visual scoring after about 3 weeks vs untreated controls
Text: as §1

[4] = system: SETVI; test: as above; format: in vivo, Setaria viridis; conditions: dosage 320 g/ha, visual scoring after about 3 weeks vs untreated controls
Text: as §1

[5] = system: POLCO; test: Herbicidal post-emergence action 1a (greenhouse pots, visual rating); format: in vivo, Polygonum convolvulus; conditions: visual rating about 3 weeks after treatment
Experimental: as §2

[6] = system: ABUTH; test: as above; format: in vivo, Abutilon theophrasti; conditions: visual rating about 3 weeks after treatment
Experimental: as §2

[7] = system: LOLRI; test: Herbicidal pre-emergence action 2a (greenhouse pots, visual scoring); format: in vivo, Lolium rigidum; conditions: dosage 320 g/ha, visual scoring after about 3 weeks vs untreated controls
Method in brief: (§3)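 Pots of covered seed were sprayed pre-emergence at 320 and/or 80 g/ha. Roughly three weeks of greenhouse growth preceded visual scoring in percent versus untreated controls.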

[8] = system: ECHCG; test: Herbicidal post-emergence action 1a (greenhouse pots, visual rating); format: in vivo, Echinochloa crus-galli; conditions: Dosage 320 g/ha; rated visually about 3 weeks after treatment; 100% = plants have died, 0% = like control plants
Experimental: as §2

[9] = system: SETVI; test: as above; format: in vivo, Setaria viridis; conditions: rated visually about 3 weeks after treatment, 100% = plants have died, 0% = like control plants
Experimental: as §2

[10] = system: AMARE; test: Herbicidal pre-emergence action 2a (greenhouse pots, visual scoring); format: in vivo, Amaranthus retroflexus; conditions: dosage 320 g/ha, visual scoring after about 3 weeks vs untreated controls
Method in brief: as §3

[11] = system: POLCO; test: as above; format: in vivo, Polygonum convolvulus; conditions: dosage 320 g/ha, visual scoring after about 3 weeks vs untreated controls
Method in brief: as §3

[12] = system: LOLRI; test: Herbicidal post-emergence action 1a (greenhouse pots, visual rating); format: in vivo, Lolium rigidum; conditions: Dosage 320 g/ha; rated visually about 3 weeks after treatment; 100% = plants have died, 0% = like control plants
Experimental: as §2

[13] = system: MATIN; test: Herbicidal pre-emergence action 2a (greenhouse pots, visual scoring); format: in vivo, Matricaria inodora; conditions: dosage 320 g/ha, visual scoring after about 3 weeks vs untreated controls
Text: as §1

[14] = system: ALOMY; test: as above; format: in vivo, Alopecurus myosuroides; conditions: dosage 320 g/ha, visual scoring after about 3 weeks
Method in brief: as §3

[15] = system: ALOMY; test: Herbicidal post-emergence action 1a (greenhouse pots, visual rating); format: in vivo, Alopecurus myosuroides; conditions: rated visually about 3 weeks after treatment, 100% = plants have died, 0% = like control plants
Experimental: as §2

[16] = system: AVEFA; test: Herbicidal pre-emergence action 2a (greenhouse pots, visual scoring); format: in vivo, Avena fatua; conditions: dosage 320 g/ha, visual scoring after about 3 weeks
Method in brief: as §3

[17] = system: AVEFA; test: Herbicidal post-emergence action 1a (greenhouse pots, visual rating); format: in vivo, Avena fatua; conditions: Dosage 320 g/ha; rated visually about 3 weeks after treatment; 100% = plants have died, 0% = like control plants
Experimental: as §2

[18] = system: AMARE; test: as above; format: in vivo, Amaranthus retroflexus; conditions: dosage 320 g/ha, visual rating about 3 weeks after treatment
Experimental: as §2

## C[C@@H](Oc1nn(-c2cnccn2)c(-c2cncc(F)c2)c1Cl)C(=O)O [Example 1-97]
[1]
  Pre-emergence action against ECHCG in %: 100%

## CCOC(=O)COc1nn(-c2cnccn2)c(-c2cncc(F)c2)c1Br [Example I-90]
[2]; dosage 80 g/ha
  Post-emergence action against VERPE in %: 90%
[2]; dosage 320 g/ha
  Post-emergence action against VERPE in %: 90%
[3]
  Pre-emergence action against VERPE in %: 100%
[4]
  Pre-emergence action against SETVI in %: 100%
[5]; dosage 80 g/ha
  Post-emergence action against POLCO in %: 80%
[5]; dosage 320 g/ha
  Post-emergence action against POLCO in %: 80%
[6]; dosage 80 g/ha
  Post-emergence action against ABUTH in %: 90%
[6]; dosage 320 g/ha
  Post-emergence action against ABUTH in %: 90%
[7]
  Pre-emergence action against LOLRI in %: 100%
[8]
  Post-emergence action against ECHCG in %: 90%
[9]; Dosage 80 g/ha
  Post-emergence action against SETVI in %: 80%
[9]; Dosage 320 g/ha
  Post-emergence action against SETVI in %: 90%
[10]
  Pre-emergence action against AMARE in %: 100%
[11]
  Pre-emergence action against POLCO in %: 100%
[12]
  Post-emergence action against LOLRI in %: 80%
[13]
  Pre-emergence action against MATIN in %: 100%
[14]
  Pre-emergence action against ALOMY in %: 90%
[15]; Dosage 80 g/ha
  Post-emergence action against ALOMY in %: 80%
[15]; Dosage 320 g/ha
  Post-emergence action against ALOMY in %: 100%
[1]
  Pre-emergence action against ECHCG in %: 100%
[16]
  Pre-emergence action against AVEFA in %: 100%
[17]
  Post-emergence action against AVEFA in %: 100%
[18]
  Post-emergence action against AMARE in %: 90%
